The record followed here is publication PMC3299889 (Analytical Biochemistry, 2012).

What is called Km is the substrate concentration at which the rate is half of its maximum.

Some targets named below: HCV NS3/4A (Hepatitis C virus genotype 1a, UniProt P27958); SARS-CoV 3CLpro (Severe acute respiratory syndrome coronavirus, UniProt P0C6X7); SARS-CoV PLpro (Severe acute respiratory syndrome coronavirus, UniProt P0C6X7).
Common to all, as to assay type: biochemical

Chain of HCV NS3/4A (P27958 1027-1657): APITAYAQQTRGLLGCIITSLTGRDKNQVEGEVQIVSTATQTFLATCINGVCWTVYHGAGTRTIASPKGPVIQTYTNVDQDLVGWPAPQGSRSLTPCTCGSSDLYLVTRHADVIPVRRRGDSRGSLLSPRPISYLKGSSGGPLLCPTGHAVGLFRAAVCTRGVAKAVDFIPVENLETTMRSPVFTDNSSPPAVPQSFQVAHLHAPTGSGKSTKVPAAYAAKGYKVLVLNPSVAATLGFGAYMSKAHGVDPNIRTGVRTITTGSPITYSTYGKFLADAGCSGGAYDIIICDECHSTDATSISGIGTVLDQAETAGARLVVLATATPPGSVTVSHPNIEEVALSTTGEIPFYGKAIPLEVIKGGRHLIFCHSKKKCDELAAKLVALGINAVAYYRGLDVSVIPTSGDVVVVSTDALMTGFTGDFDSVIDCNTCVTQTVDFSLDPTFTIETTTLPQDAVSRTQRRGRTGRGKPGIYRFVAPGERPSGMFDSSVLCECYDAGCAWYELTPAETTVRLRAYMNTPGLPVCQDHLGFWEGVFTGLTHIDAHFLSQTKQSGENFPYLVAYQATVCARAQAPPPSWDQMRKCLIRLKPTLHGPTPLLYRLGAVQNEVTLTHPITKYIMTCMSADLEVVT
Chain of HCV NS3/4A (P27958 1658-1711 partner limits assumed): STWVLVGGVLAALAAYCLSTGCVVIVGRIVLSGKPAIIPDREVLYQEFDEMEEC

As for `O[C@@H](CS)[C@@H](O)CS` (racemic) [DTT, dithiothreitol], the Vmax was found to be 181 ± 21 RFU/10 min on HCV NS3/4A, 435 ± 12 RFU/10 min at SARS-CoV 3CLpro and 813 ± 36 RFU/10 min at SARS-CoV PLpro. For the same compound, on HCV NS3/4A, the “change of enzyme efficiency (Kcat/KM)” value is recorded as 1.6 fold. Also, the “increase of KM” value on SARS-CoV PLpro is recorded as 4 fold.

Take `N[C@@H](CCC(=O)N[C@@H](CS)C(=O)NCC(=O)O)C(=O)O` [GSH, reduced glutathione]: on HCV NS3/4A, the Kcat/KM ratio amounted to 1.5 and the Vmax turned out to be 151 ± 8 RFU/10 min. Besides, on SARS-CoV 3CLpro, the Kcat/KM ratio was determined as 1.2, the Km was found to be 16.1 ± 0.8 µM and the Vmax was 516 ± 9 RFU/10 min. At SARS-CoV PLpro, the Kcat/KM ratio was determined as 1.0, the Vmax is 449 ± 14 RFU/10 min and the “increase of KM” value was determined as 1.5 fold.

With `O=C(O)CCP(CCC(=O)O)CCC(=O)O` [TCEP, tris(2-carboxyethyl)phosphine], on HCV NS3/4A, the Kcat/KM ratio turned out to be 0.5. In addition, the Vmax on HCV NS3/4A worked out at 75 ± 15 RFU/10 min; on SARS-CoV 3CLpro it was 472 ± 18 RFU/10 min; on SARS-CoV PLpro it was 441 ± 41 RFU/10 min. Besides, the “increase of KM” value on SARS-CoV PLpro turned out to be 2.5 fold.

Regarding `OCCS` [β-MCE, β-mercaptoethanol], at HCV NS3/4A, the Kcat/KM ratio worked out at 1.4, the Km was determined as 2.5 ± 0.1 µM and the Vmax is reported as 161 ± 8 RFU/10 min. For the same compound, on SARS-CoV 3CLpro, the Kcat/KM ratio is recorded as 1.2, the Michaelis constant (Km) is 14.8 ± 1.2 µM and the Vmax is listed as 453 ± 24 RFU/10 min. At SARS-CoV PLpro, the Kcat/KM ratio turned out to be 1.2, the Km came to 117 ± 7 µM and the Vmax was 438 ± 30 RFU/10 min.
